The source of these data is patent US12264156B2, “Compounds and pharmaceutical compositions thereof for the treatment of diseases” (GALAPAGOS NV, priority 2018, dated 2025).

As a reminder, the IC50 is the concentration needed to halve the response being measured. Lower therefore signals greater potency in that assay.

What all share (format): biochemical
Holding throughout (details): ADP-Glo SIK kinase assay
Background: ADP-Glo turns the ADP formed in a reaction into a luminescent signal.

One test addresses T1, SIK1 (Homo sapiens, UniProt P57059).
T1 construct: purchased Carna Biosciences 02-131
The experiment in a line: ADP-Glo kinase assay, SIK1. An outline of the steps:
(§1)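 Wells with 1% DMSO or 10 μM staurosporine (final) define the control window. The kinase reaction with substrate and ATP runs 120 min at RT, followed by ADP-Glo detection: ATP depletion (40 min) and ADP-derived luminescence (30 min).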

The target in a further test is T2, SIK3 (Homo sapiens, UniProt Q9Y2K2).
T2 construct: purchased SignalChem S12-11G-100
The experiment in a line: ADP-Glo kinase assay, SIK3. An outline of the steps: as §1

The target of a further test is T3, SIK2 (Homo sapiens, UniProt Q9H0K1).
T3 construct: purchased ThermoFisher Scientific PV4792
The experiment in a line: ADP-Glo kinase assay, SIK2. An outline of the steps: as §1

T1 sequence (P57059 whole entry): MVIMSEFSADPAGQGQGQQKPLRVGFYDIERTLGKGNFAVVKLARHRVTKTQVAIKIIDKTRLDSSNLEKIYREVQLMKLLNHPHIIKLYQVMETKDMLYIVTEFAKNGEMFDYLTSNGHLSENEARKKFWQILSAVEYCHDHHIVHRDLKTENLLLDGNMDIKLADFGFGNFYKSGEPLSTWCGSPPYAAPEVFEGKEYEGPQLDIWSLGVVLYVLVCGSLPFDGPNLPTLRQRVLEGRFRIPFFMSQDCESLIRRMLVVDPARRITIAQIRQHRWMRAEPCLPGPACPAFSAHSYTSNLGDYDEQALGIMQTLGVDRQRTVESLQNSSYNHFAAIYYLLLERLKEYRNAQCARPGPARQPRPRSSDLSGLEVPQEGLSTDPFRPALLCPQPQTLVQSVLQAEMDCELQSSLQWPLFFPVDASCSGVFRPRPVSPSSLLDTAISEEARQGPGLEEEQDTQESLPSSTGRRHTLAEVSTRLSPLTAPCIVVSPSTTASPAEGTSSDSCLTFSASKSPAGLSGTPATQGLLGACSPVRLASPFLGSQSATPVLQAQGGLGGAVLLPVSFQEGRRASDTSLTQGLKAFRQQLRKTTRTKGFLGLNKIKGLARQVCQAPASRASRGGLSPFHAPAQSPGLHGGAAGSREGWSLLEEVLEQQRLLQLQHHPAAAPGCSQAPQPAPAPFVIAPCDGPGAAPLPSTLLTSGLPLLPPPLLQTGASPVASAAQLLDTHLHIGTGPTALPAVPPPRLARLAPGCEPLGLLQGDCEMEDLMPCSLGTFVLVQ
T3 sequence (Q9H0K1 whole entry): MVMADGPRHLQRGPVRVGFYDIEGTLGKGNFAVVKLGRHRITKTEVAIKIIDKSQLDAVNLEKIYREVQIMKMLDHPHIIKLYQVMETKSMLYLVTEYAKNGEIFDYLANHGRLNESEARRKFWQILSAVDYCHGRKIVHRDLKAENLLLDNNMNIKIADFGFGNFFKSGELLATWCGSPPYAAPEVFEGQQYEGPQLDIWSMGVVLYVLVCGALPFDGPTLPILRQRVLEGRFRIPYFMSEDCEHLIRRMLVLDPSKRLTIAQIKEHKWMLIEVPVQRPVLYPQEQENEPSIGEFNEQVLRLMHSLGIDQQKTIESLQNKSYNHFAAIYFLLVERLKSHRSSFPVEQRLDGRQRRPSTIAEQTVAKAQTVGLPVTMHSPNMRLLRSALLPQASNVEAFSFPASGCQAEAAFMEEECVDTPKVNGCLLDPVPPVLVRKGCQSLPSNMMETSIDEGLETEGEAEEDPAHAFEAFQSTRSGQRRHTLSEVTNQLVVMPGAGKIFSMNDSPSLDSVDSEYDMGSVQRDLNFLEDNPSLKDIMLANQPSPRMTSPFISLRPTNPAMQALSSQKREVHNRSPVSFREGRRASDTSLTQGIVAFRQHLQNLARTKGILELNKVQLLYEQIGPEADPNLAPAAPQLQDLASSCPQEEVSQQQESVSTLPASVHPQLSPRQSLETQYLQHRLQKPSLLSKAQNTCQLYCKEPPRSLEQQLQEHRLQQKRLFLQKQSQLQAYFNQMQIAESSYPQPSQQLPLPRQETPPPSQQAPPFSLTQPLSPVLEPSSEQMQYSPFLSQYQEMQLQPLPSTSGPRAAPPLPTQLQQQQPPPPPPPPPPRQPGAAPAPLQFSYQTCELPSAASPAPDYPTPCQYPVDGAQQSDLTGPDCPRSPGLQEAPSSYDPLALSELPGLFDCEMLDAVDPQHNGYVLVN
T2 sequence (Q9Y2K2 whole entry): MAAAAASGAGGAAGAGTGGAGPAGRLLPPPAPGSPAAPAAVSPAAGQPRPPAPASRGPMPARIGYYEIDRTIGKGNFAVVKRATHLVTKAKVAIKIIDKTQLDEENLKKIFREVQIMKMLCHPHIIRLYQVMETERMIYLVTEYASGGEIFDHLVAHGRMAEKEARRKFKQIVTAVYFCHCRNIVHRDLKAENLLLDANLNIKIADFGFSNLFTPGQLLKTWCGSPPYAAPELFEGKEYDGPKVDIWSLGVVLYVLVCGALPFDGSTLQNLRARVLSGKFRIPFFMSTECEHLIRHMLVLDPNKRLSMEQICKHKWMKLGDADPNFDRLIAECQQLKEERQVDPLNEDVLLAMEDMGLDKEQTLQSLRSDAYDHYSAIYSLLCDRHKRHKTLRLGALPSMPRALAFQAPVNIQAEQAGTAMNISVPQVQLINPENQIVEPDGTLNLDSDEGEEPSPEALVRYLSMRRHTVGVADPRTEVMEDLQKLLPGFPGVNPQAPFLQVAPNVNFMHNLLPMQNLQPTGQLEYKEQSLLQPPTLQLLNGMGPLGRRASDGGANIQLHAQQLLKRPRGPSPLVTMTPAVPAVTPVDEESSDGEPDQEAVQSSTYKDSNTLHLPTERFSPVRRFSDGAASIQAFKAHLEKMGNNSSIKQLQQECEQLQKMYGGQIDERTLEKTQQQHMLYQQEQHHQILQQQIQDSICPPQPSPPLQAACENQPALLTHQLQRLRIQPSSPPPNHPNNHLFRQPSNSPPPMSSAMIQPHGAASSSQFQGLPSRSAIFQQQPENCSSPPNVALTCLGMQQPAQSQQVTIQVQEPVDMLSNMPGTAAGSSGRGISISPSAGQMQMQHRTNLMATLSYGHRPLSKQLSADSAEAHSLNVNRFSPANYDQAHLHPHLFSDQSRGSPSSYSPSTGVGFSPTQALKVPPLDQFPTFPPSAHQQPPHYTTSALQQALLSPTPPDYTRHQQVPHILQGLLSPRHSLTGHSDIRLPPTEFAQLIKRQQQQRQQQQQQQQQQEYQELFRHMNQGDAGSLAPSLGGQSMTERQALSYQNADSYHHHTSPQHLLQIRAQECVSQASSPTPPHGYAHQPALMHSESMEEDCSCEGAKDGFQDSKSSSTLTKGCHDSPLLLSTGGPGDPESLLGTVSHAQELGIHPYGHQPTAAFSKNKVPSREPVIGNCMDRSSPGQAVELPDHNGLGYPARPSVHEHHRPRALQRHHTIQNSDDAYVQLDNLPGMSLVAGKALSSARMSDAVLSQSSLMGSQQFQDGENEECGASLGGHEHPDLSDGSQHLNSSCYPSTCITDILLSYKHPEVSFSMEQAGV

Turning to `COc1cc(-c2cnc3cc(OCCCN4CC5(CCS5(=O)=O)C4)ccn23)cc(OC(F)F)c1C(=O)NC1CC1` [compound 332, N-cyclopropyl-2-(difluoromethoxy)-4-[7-[3-(1,1-dioxo-1λ^6-thia-6-azaspiro[3.3]heptan-6-yl)propoxy]imidazo[1,2-a]pyridin-3-yl]-6-methoxy-benzamide], the 50% inhibitory concentration (IC50) against SIK1 is 10 to 100 nM; on SIK3, 0.01 to 10 nM; on SIK2, 0.01 to 10 nM.

Consider `COc1cc(-c2cnc3cc(OCCN4C(C)CCCC4C)ccn23)cc(OC(F)F)c1C(=O)NC1CC1` (stereo not drawn) [compound 294, N-cyclopropyl-2-(difluoromethoxy)-4-[7-[2-(2,6-dimethyl-1-piperidyl)ethoxy]imidazo [1,2-a]pyridin-3-yl]-6-methoxy-benzamide], for which the values for the IC50 against SIK1, at SIK3 and on SIK2 were 10 to 100 nM, 0.01 to 10 nM and 0.01 to 10 nM, respectively.

In the case of `Cc1cc(-c2cnc3cc(OCCN4CCOCC4)ccn23)cc(OC(F)F)c1C(=O)NCC(F)(F)F` [compound 243, 2-(difluoromethoxy)-6-methyl-4-[7-(2-morpholinoethoxy)imidazo[1,2-a]pyridin-3-yl]-N-(2,2,2-trifluoroethyl)benzamide], the IC50 was above 500 nM on SIK1, 10 to 100 nM against SIK3 and 10 to 100 nM against SIK2.

For the compound `COc1cc(-c2cnc3cc(OCCN(C)c4ccnnc4)ccn23)cc(OC(F)F)c1C(=O)NC1CC1` [compound 240, N-cyclopropyl-2-(difluoromethoxy)-6-methoxy-4-[7-[2-[methyl(pyridazin-4-yl)amino]ethoxy]imidazo [1,2-a]pyridin-3-yl]benzamide], the IC50 against SIK1, against SIK3 and at SIK2 was 0.01 to 10 nM throughout.

Regarding `CN(C)CCOc1ccn2c(-c3cc(F)c(C(=O)NCC(F)(F)F)c(OC(F)F)c3)cnc2c1` [compound 155, 2-(difluoromethoxy)-4-[7-[2-(dimethylamino)ethoxy]imidazo[1,2-a]pyridin-3-yl]-6-fluoro-N-(2,2,2-trifluoroethyl)benzamide], the IC50 against SIK1 was above 500 nM; at SIK3 it was 10 to 100 nM; against SIK2, 10 to 100 nM.

As to `COc1cc(-c2cnc3cc(OCCCN4CCc5nc(C)sc5C4)ccn23)cc(OC(F)F)c1C(=O)NC1CC1` [compound 320, N-cyclopropyl-2-(difluoromethoxy)-6-methoxy-4-[7-[3-(2-methyl-6,7-dihydro-4H-thiazolo[5,4-c]pyridin-5-yl)propoxy]imidazo[1,2-a]pyridin-3-yl]benzamide], the half-maximal inhibitory concentration (IC50) fell in the range of 10 to 100 nM against SIK1, 0.01 to 10 nM on SIK3 and 0.01 to 10 nM on SIK2.

Regarding `COc1cc(-c2cnc3cc(OCc4cncn4C)ccn23)cc(OC(F)F)c1C(=O)NC1CC1` [compound 19, N-cyclopropyl-2-(difluoromethoxy)-6-methoxy-4-[7-[(3-methylimidazol-4-yl)methoxy]imidazo[1,2-a]pyridin-3-yl]benzamide], the half-inhibitory concentration (IC50) at SIK1 fell in the range of 10 to 100 nM; against SIK3 it was 0.01 to 10 nM; against SIK2, 0.01 to 10 nM.

In the case of `COc1cc(-c2cnc3cc(OCc4cncn4C)ccn23)cc2c1C(=O)N(CC(F)(F)F)CC2` [compound 85, 8-methoxy-6-[7-[(3-methylimidazol-4-yl)methoxy]imidazo[1,2-a]pyridin-3-yl]-2-(2,2,2-trifluoroethyl)-3,4-dihydroisoquinolin-1-one], the IC50 is above 500 nM on SIK1, 0.01 to 10 nM at SIK3 and 0.01 to 10 nM against SIK2.

On to `COc1cc(-c2cnc3cc(OC[C@@H](N)CC(C)C)ccn23)cc(OC(F)F)c1C(=O)NC1CC1` [compound 132, 4-[7-[(2S)-2-amino-4-methyl-pentoxy]imidazo[1,2-a]pyridin-3-yl]-N-cyclopropyl-2-(difluoromethoxy)-6-methoxy-benzamide], for which the IC50 against SIK1 fell in the range of 10 to 100 nM; on SIK3, 0.01 to 10 nM; on SIK2, 0.01 to 10 nM.
